Converted amounts (≈) assume the structure as drawn. Square brackets hold non-standard residues; d marks the D form. Peptide text beside a SMILES is read from it. 2Nal = N[C@@H](Cc1ccc2ccccc2c1)C(=O)O; hIle = CC[C@H](C)C[C@H](N)C(=O)O; Cha = N[C@@H](CC1CCCCC1)C(=O)O

Series [1] concerns Erythrocyte. Put plainly: Hemolytic activity in mouse Red blood cells incubated for 1 hr by microplate reader assay. It counts as toxicity, cell-based. As to conditions: erythrocyte, 1 h.
Series [2] has as its system Bacillus subtilis. Put plainly: Antibacterial activity against Bacillus subtilis ATCC 23857 assessed as reduction in bacterial growth incubated for 18 to 20 hrs by Mueller Hinton broth dilution method. Type of series: functional. The note with it: time 18-20 hrs. (Broth dilution looks for growth in wells or tubes with falling amounts of substance.)
The subject of series [3] is Staphylococcus aureus. In words: Antibacterial activity against Staphylococcus aureus ATCC 25923 assessed as reduction in bacterial growth incubated for 18 to 20 hrs by Mueller Hinton broth dilution method. As to conditions: time 18-20 hrs. It counts as functional.
Series [4] has as its system Pseudomonas aeruginosa. In words: Antibacterial activity against Pseudomonas aeruginosa ATCC 27853 assessed as reduction in bacterial growth incubated for 18 to 20 hrs by Mueller Hinton broth dilution method. Type of series: functional. The note with it: time 18-20 hrs.
Series [5] deals with Escherichia coli. In words: Antibacterial activity against Escherichia coli ATCC 25922 assessed as reduction in bacterial growth incubated for 18 to 20 hrs by Mueller Hinton broth dilution method. It counts as functional. The note with it: time 18-20 hrs.
The subject of series [6] is Staphylococcus aureus. In words: Antibacterial activity against Staphylococcus aureus ATCC 25923 assessed as reduction in bacterial growth incubated for 18 to 24 hrs by broth microdilution method. It counts as functional. As to conditions: time 18-24 hrs.
Series [7] has as its system Escherichia coli. Put plainly: Antibacterial activity against Escherichia coli ATCC 25922 assessed as reduction in bacterial growth by broth microdilution method. It counts as functional.
Series [8] has as its system Pseudomonas aeruginosa. Put plainly: Antibacterial activity against Pseudomonas aeruginosa ATCC 27853 assessed as reduction in microbial growth incubated for 16 to 20 hrs by CLSI protocol based Muller Hinton broth assay. It counts as functional. The note with it: time 16-20 hrs.
The test system of series [9] is Staphylococcus aureus. Put plainly: Antibacterial activity against methicillin-resistant Staphylococcus aureus ATCC 33591 assessed as reduction in bacterial growth incubated for 18 hrs by agar dilution method. It counts as functional. A general note: Agar dilution tests growth on a series of plates holding different concentrations.
For series [10], the system named is Enterococcus faecium. Put plainly: Antibacterial activity against vancomycin resistant Enterococcus faecium ATCC 700221 assessed as inhibition of bacterial growth incubated for 48 hrs by CLSI-based broth microdilution assay. It counts as functional.
Series [11] concerns Escherichia coli. Put plainly: Antibacterial activity against Escherichia coli ATCC 25922 assessed as reduction in microbial growth incubated for 16 to 20 hrs by CLSI protocol based Muller Hinton broth assay. Type of series: functional. As to conditions: time 16-20 hrs.
Series [12] is described as follows: Hemolytic activity in human RBC assessed as hemolysis measured after 24 hrs. It counts as toxicity, cell-based, Erythrocyte. As to conditions: red blood cells.

Consider `CC[C@H](C)[C@H](NC(=O)[C@H](CCCNC(=N)N)NC(=O)[C@@H](CCCCN)NC(=O)[C@H](CC(C)C)NC(=O)[C@H](CC(C)C)NC(=O)CN)C(=O)N[C@@H](CCCCN)C(=O)N[C@@H](C(=O)N[C@@H](CC(C)C)C(=O)N[C@@H](CC(C)C)C(N)=O)[C@H](C)O`, for which, in series [1], the HC10 is more than 300 µM.

The molecule `CC(C)C[C@@H](NC(=O)[C@@H](CC(C)C)NC(=O)[C@@H](CCCCN)NC(=O)[C@@H](CCCCN)NC(=O)[C@@H](Cc1c[nH]c2ccccc12)NC(=O)[C@@H](CCCNC(=N)N)NC(=O)[C@@H](CCCCN)NC(=O)[C@@H](CC(C)C)NC(=O)[C@@H](CC(C)C)NC(=O)[C@H](N)Cc1c[nH]c2ccccc12)C(N)=O` yielded an HC10 in [1] of more than 200 µM. In addition, the MIC in series [2] was 4 µM (≈ 5.53 µg/mL); in [3], 16 µM (≈ 22.1 µg/mL); in [4] it was 8 µM (≈ 11.1 µg/mL); in series [5] it was 8 µM (≈ 11.1 µg/mL).

Regarding `CC[C@H](C)[C@H](NC(=O)[C@H](CCCNC(=N)N)NC(=O)[C@H](CCCCN)NC(=O)[C@H](CC(C)C)NC(=O)[C@H](CC(C)C)NC(=O)[C@H](C)N)C(=O)N[C@@H](CCCCN)C(=O)N[C@H](C(=O)N[C@@H](CC(C)C)C(=O)N[C@@H](CC(C)C)C(N)=O)[C@@H](C)O` (H-ALLKRIKTLL-NH2), the MIC in series [6] and in [7] was more than 18 µM throughout.

In the case of `CC[C@H](C)C[C@H](NC(=O)[C@H](CCCNC(=N)N)NC(=O)[C@H](CCCCN)NC(=O)[C@H](CC(C)C)NC(=O)[C@H](CC(C)C)NC(=O)CN)C(=O)N[C@@H](CCCCN)C(=O)N[C@H](C(=O)N[C@@H](CC(C)C)C(=O)N[C@@H](CC1CCCCC1)C(N)=O)[C@@H](C)O` (H-GLLKR[hIle]KTL[Cha]-NH2), the MIC in series [8] came out at 28.4 µM; in series [9], 28.4 µM (≈ 34.3 µg/mL); in series [10] it was 26.3 µM (≈ 31.8 µg/mL); in series [11], 12.5 µM. Moreover, the HC50 at 24 h in [12] turned out to be 317 µM.

Regarding `CC[C@H](C)C[C@H](NC(=O)[C@H](CCCNC(=N)N)NC(=O)[C@H](CCCCN)NC(=O)[C@H](CC(C)C)NC(=O)[C@H](CC(C)C)NC(=O)CN)C(=O)N[C@@H](CCCCN)C(=O)N[C@H](C(=O)N[C@@H](Cc1ccc2ccccc2c1)C(=O)N[C@@H](CC(C)C)C(N)=O)[C@@H](C)O` (H-GLLKR[hIle]KT[2Nal]L-NH2), the minimum inhibitory concentration (MIC) in [8] is 28.4 µM; in series [9] it was 28.4 µM (≈ 35.5 µg/mL); in series [10] it was 8.8 µM (≈ 11 µg/mL); in series [11] it was 15.8 µM. Besides, the HC50 at 24 h in series [12] came out at 149 µM.

As for `CC[C@H](C)C[C@H](NC(=O)[C@H](CCCNC(=N)N)NC(=O)[C@H](CCCCN)NC(=O)[C@H](CC(C)C)NC(=O)[C@H](CC(C)C)NC(=O)CN)C(=O)N[C@@H](CCCCN)C(=O)N[C@H](C(=O)N[C@@H](CC1CCCCC1)C(=O)N[C@@H](CC(C)C)C(N)=O)[C@@H](C)O` (H-GLLKR[hIle]KT[Cha]L-NH2), the minimum inhibitory concentration (MIC) in series [8] was 28.4 µM; in [9], 47.4 µM (≈ 57.2 µg/mL); in series [10] it was 28.4 µM (≈ 34.3 µg/mL); in series [11], 28.4 µM. The concentration for 50% haemolysis (HC50) at 24 h in [12] worked out at 234 µM.

Consider `CC[C@H](C)[C@H](NC(=O)[C@H](Cc1c[nH]c2ccccc12)NC(=O)[C@H](CCCCN)NC(=O)[C@H](CC(C)C)NC(=O)[C@H](CC(C)C)NC(=O)CN)C(=O)N[C@@H](CCCCN)C(=O)N[C@@H](CCCCN)C(=O)N[C@@H](CC(C)C)C(=O)N[C@@H](CC(C)C)C(N)=O` (H-GLLKWIKKLL-NH2), for which the minimum inhibitory concentration (MIC) in series [8] was determined as 9.5 µM; in [9], 2.5 µM (≈ 3.03 µg/mL); in [10] it was 3.2 µM (≈ 3.87 µg/mL); in series [11] it was 3.2 µM. In [12], the HC50 at 24 h came to 11.6 µM.

`CC[C@H](C)[C@H](NC(=O)[C@H](CCCNC(=N)N)NC(=O)[C@H](CCCCN)NC(=O)[C@H](Cc1ccc2ccccc2c1)NC(=O)[C@H](CC(C)C)NC(=O)CN)C(=O)N[C@@H](CCCCN)C(=O)N[C@H](C(=O)N[C@@H](CC(C)C)C(=O)N[C@@H](CC(C)C)C(N)=O)[C@@H](C)O` (H-GL[2Nal]KRIKTLL-NH2): the minimal inhibitory concentration (MIC) is 9.5 µM in [8], 28.4 µM (≈ 35.1 µg/mL) in series [9], 9.5 µM (≈ 11.8 µg/mL) in series [10] and 28.4 µM in series [11]. For the same molecule, the HC50 at 24 h in [12] was found to be 172 µM.

The MIC is the smallest concentration in the dilution series that meets the test's criterion for growth inhibition. One may read the HC50 as the concentration giving 50% haemolysis.

Values taken from ChEMBL document CHEMBL5608163, “Structure modification of anoplin for fighting resistant bacteria” (Eur J Med Chem, 2024).
